The source of these data is patent EP4775582A1, “MACROCYCLIC COMPOUND AND ANTIBODY-DRUG CONJUGATE THEREOF” (Genfleet Therapeutics (Shanghai) Inc., priority 2023, dated 2025).

A word on the pIC50: it is −log10 of the IC50, conventionally taken in molar units. In general, IC50 refers to the concentration that gives 50% inhibition.

Molecules are shown by their SMILES. pIC50: −log10 of the molar value.

Common to all, as to assay type: cell-based, human
One assay deals with H441 p-ERK. Description: Cell p-ERK assay (HTRF), NCI-H441 cells. As to conditions: Homo sapiens; NCI-H441 cells (KRAS G12V), 3 h incubation. Here is the method:
(§1) The cells were digested with trypsin (containing EDTA), collected in their corresponding complete media, and counted. The density of the cell suspensions was adjusted with their corresponding complete media, and 10000 AsPC-1 cells or 20000 NCI-H441 cells per well were seeded into a 96-well cell culture plate, with the volume of the medium in each well being 80 µL. The cell culture plate was incubated in an incubator at 37 °C with 5% CO2 overnight. […] On the day after cell seeding, 20 µL of the 5× compound stock solution was added to each cell culture well. […] In addition to the compound-treated wells described above, cell-containing DMSO control wells were also set. A complete medium containing 0.5% DMSO was added at 20 µL/well. After the mixture was well mixed, the culture plate was incubated in the incubator at 37 °C with 5% CO2 for another 3 h. The medium was then removed from the culture wells, and 50 µL of cell lysis buffer (from Advance ERK phospho-T202/Y204 kit) was added to each well. The mixture was well mixed and incubated for 30 min. Then, 16 µL of the mixture was transferred to a white-bottomed, opaque 96-well assay plate, and separately, 16 µL of cell lysis buffer was added to additional wells (serving as blank wells) in the assay plate. After the transfer was completed, 4 µL of p-ERK HTRF antibody mixture (from Advance ERK phospho-T202/Y204 kit) was added to each well of the assay plate, followed by a 4-hour incubation. […] Using an XLfit software, the IR (%) values were plotted against the logarithm of the compound concentrations, and the dose-response curves were fitted using the four-parameter method to calculate the IC50 values.
In general terms: Time-resolved FRET reads energy transfer from a long-lived donor to a nearby acceptor.

The next assay relates to NCI-H441 cells. Nature of the assay: 3D cell proliferation assay (CellTiter Glo-3D), NCI-H441. As to conditions: Homo sapiens, 120 h, NCI-H441 cells (KRAS G12V), 2% FBS, 5 days, read-out: H441 AP IC50. Here is the method:
(§2) The cells were digested with trypsin (containing EDTA), collected in their respective low-serum complete media containing 2% FBS (for MIA Paca-2 cell culture: DMEM + 2% FBS + 0.5% Horse serum + 1% PS), and counted. After the cell density was adjusted as required, 200 MIA PaCa-2 cells, 800 AsPC-1 cells, 800 NCI-H441 cells, or 400 NCI-H1975 cells per well were seeded into a 384-well cell culture plate, with the volume of the medium in each well being 45 µL. The cell culture plate was incubated in an incubator at 37 °C with 5% CO2 overnight. […] On the day after cell seeding, 5 µL of the 10× compound stock solution was added to each cell culture well. […] In addition to the compound-treated wells described above, cell-containing DMSO control wells (with 5 µL of the complete medium containing 1% DMSO added to each well) and cell-free medium control wells (containing 50 µL of the complete medium with 2% FBS) were also set. The culture plate was incubated in an incubator at 37 °C with 5% CO2 for another 5 days, and then 30 µL of CellTiter-Glo working solution was added to each well. The mixture was well mixed, incubated for 30 min, left to stand at room temperature for 30 min, and then transferred to a white-bottomed, opaque 384-well assay plate at 40 µL/well. […] Using an XLfit software, the IR (%) values were plotted against the logarithm of the compound concentrations, and the dose-response curves were fitted using the four-parameter method to calculate the IC50 values.
(Cellular ATP, detected with luciferase, serves as a proxy for viable cell number.)

Another assay deals with AsPC-1 p-ERK. Description: Cell p-ERK assay (HTRF), AsPC-1 cells. As to conditions: Homo sapiens, ASPC1, 3 h, read-out: AsPC-1 p-ERK IC50(nM). On the procedure: as §1
In the next assay the test system is AsPC-1 cells. Nature of the assay: 3D cell proliferation assay (CellTiter Glo-3D), AsPC-1. As to conditions: Homo sapiens, ASPC1, 120 h, read-out: AsPC-1 AP IC50(nM). Here is the method: as §2

Turning to `CCn1c(-c2cc(C#CCN3CCCN(C(=O)CO)CC3)cnc2[C@H](C)OC)c2c3cc(ccc31)-c1csc(n1)C[C@H](NC(=O)[C@H]1[C@H](C)[C@@H]1C)C(=O)N1CCC[C@H](N1)C(=O)OCC(C)(C)C2` (atropisomer, axis not shown; (Ra)) [Compound Z10, (1r,2R,3S)-N-((6^3S,4S,Z)-1^1-ethyl-(Ra)-1^2-(5-(3-(4-(2-hydroxyacetyl)-1,4-diazepin-1-yl)prop-1-yn-1-yl)-2-((S)-1-methoxyethyl)pyridin-3-yl)-10,10-dimethyl-5,7-dioxo-6^1,6^2,6^3,6^4,6^5,6^6-hexahydro-1^1H-8-oxa-2(4,2)-thiazola-1(5,3)-indola-6(1,3)-pyridazinacycloundecaphane-4-yl)-2,3-dimethylcyclopropane-1-carboxamide], the results for the negative-log IC50 (pIC50) with H441 p-ERK and in the assay on NCI-H441 cells were 9.74 and 9.89, respectively. Also, the figures for the IC50 in the assay with AsPC-1 p-ERK and in the assay with AsPC-1 cells were 0.12 nM and 0.16 nM, respectively.
Taken in the same sequence, the figures for `CCn1c(-c2cc(C#CCN3CCS(=O)(=O)CC3)cnc2[C@H](C)OC)c2c3cc(ccc31)-c1csc(n1)C[C@H](Nc1n[nH]c3cc(C)ccc13)C(=O)N1CCC[C@H](N1)C(=O)OCC(C)(C)C2` (atropisomer, axis not shown; (Ra)) [Compound Z171, (6^3S,4S,Z)-(Ra)-1^2-(5-(3-(1,1-dioxidothiomorpholino)prop-1-yn-1-yl)-2-((S)-1-methoxyethyl)pyridin-3-yl)-1^1-ethyl-10,10-dimethyl-4-((6-methyl-1H-indazol-3-yl)amino)-6^1,6^2,6^3,6^4,6^5,6^6-hexahydro-1^1H-8-oxa-2(4,2)-thiazola-1(5,3)-indola-6(1,3)-pyridazinacycloundecaphane-5,7-dione] were 9.28, 8.56, 0.97 nM and 1.36 nM.
As for `CCn1c(-c2cc(C#CCN3CCN(C(=O)CN)CC3)cnc2[C@H](C)OC)c2c3cc(ccc31)-c1csc(n1)[C@@H](OCCN(C)C)[C@H](NC(=O)[C@H]1[C@H](C)[C@@H]1C)C(=O)N1CCC[C@H](N1)C(=O)OCC(C)(C)C2` (atropisomer, axis not shown; (Ra)) [Compound Z165], the negative logarithm of the IC50 (pIC50) was 7.86 in the assay on H441 p-ERK and 7.61 in the assay on NCI-H441 cells. In addition, the IC50 was found to be 10.3 nM in the assay with AsPC-1 p-ERK and 10 nM with AsPC-1 cells.
In the case of `CCn1c(-c2cc(C#CCN3CCCOCC3)cnc2[C@H](C)OC)c2c3cc(ccc31)-c1csc(n1)C[C@H](NC1=NOC(CC)(CC)C1)C(=O)N1CCC[C@H](N1)C(=O)OCC(C)(C)C2` (atropisomer, axis not shown; (Ra)) [Compound Z279, (6^3S,4S,Z)-(Ra)-1^2-(5-(3-(1,4-oxazepan-4-yl)prop-1-yn-1-yl)-2-((S)-1-methoxyethyl)pyridin-3-yl)-1^1-ethyl-10,10-dimethyl-4-((5,5-diethyl-4,5-dihydroisoxazol-3-yl)amino)-6^1,6^2,6^3,6^4,6^5,6^6-hexahydro-1^1H-8-oxa-2(4,2)-thiazola-1(5,3)-indola-6(1,3)-pyridazinacycloundecaphane-5,7-dione], the pIC50 with H441 p-ERK is 8.99; in the assay on NCI-H441 cells it was 8.49. Besides, the results for the IC50 in the assay on AsPC-1 p-ERK and in the assay with AsPC-1 cells were 1.83 nM and 6.05 nM, respectively.
Taken in the same sequence, the figures for `COCCn1c(-c2cc(C#CCN3CCC(C#N)(CO)CC3)cnc2[C@H](C)OC)c2c3cc(ccc31)-c1csc(n1)C[C@H](NC(=O)[C@H]1[C@@H]3COC[C@@H]31)C(=O)N1CCC[C@H](N1)C(=O)OCC(C)(C)C2` (atropisomer, axis not shown) [Compound Z28, (1R,5S,6r)-N-((6^3S,4S,Z)-1^2-(5-(3-(4-cyano-4-hydroxymethylpiperidin-1-yl)prop-1-yn-1-yl)-2-((S)-1-methoxyethyl)pyridin-3-yl)-1^1-(methoxyethyl)-10,10-dimethyl-5,7-dioxo-6^1,6^2,6^3,6^4,6^5,6^6-hexahydro-1^1H-8-oxa-2(4,2)-thiazola-1(5,3)-indola-6(1,3)-pyridazinacycloundecaphane-4-yl)-3-oxabicyclo[3.1.0]hexane-6-carboxamide] were 9.32, 9.40, 0.42 nM and 0.37 nM.
